Key:
Test in all cases: bio-layer interferometry, dilution series on biotinylated recombinant enzyme
Assay type in all cases: binding
[1] = target: T1, RmlC (dTDP‐4‐keto‐6‐deoxyglucose‐3,5‐epimerase) (Streptococcus pyogenes, UniProt Q5XCG7)
T1 construct: gene rfbC

[2] = target: T2, RmlB (dTDP‐glucose‐4,6‐dehydratase) (Streptococcus pyogenes, UniProt Q9A045)
T2 construct: gene cpsFQ

[3] = target: GacA (RmlD, dTDP‐4‐dehydrorhamnose reductase) (Streptococcus pyogenes, UniProt Q9A0G6)
Sequence of GacA (RmlD, dTDP‐4‐dehydrorhamnose reductase) (Q9A0G6 entry or part of it): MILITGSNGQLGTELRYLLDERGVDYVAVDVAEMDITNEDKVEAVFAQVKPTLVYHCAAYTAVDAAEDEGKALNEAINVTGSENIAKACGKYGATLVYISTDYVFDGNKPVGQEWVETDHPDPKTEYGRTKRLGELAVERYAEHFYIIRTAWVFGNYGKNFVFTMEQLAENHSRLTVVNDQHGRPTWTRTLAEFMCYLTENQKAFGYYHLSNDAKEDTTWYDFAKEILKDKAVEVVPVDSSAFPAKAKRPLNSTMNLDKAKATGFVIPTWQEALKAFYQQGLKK

T1 sequence (Q5XCG7 whole entry): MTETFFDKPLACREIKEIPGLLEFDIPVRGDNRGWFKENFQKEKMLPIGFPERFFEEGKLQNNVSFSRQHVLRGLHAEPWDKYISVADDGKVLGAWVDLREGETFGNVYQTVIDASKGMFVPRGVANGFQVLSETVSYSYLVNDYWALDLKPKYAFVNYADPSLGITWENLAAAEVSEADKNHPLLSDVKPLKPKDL
T2 sequence (Q9A045 entry or part of it): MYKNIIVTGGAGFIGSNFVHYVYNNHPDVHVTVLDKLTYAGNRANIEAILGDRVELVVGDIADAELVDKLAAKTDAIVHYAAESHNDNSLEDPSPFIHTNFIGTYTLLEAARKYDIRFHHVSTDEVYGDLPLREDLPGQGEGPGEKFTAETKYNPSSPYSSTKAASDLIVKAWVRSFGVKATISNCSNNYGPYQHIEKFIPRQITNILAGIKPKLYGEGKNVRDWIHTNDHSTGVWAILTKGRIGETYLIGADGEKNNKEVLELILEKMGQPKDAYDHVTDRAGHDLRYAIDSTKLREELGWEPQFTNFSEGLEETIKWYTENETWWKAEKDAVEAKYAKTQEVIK

## O=C(O)c1ccc(-c2ccc(Cl)cc2)o1 [Ri03, 5‐(4‐chlorophenyl)‐2‐furoic acid]
[1]
  Kd: ~3000 µM
[2]
  Kd: 200 µM
[3]
  Kd: 300 µM
